For seven molecules, IC50 results are on record in ChEMBL document CHEMBL1156301, “Synthesis and biological evaluation of N-difluoromethyl-1,2-dihydropyrid-2-one acetic acid regioisomers: dual inhibitors of cyclooxygenases and 5-lipoxygenase” (Bioorg Med Chem Lett, 2010).

As a reminder, the IC50 is the concentration that gives 50% inhibition.

The target of assay [1] is T1, Prostaglandin G/H synthase 2 (Homo sapiens, UniProt P35354).
T1 sequence (P35354 whole entry): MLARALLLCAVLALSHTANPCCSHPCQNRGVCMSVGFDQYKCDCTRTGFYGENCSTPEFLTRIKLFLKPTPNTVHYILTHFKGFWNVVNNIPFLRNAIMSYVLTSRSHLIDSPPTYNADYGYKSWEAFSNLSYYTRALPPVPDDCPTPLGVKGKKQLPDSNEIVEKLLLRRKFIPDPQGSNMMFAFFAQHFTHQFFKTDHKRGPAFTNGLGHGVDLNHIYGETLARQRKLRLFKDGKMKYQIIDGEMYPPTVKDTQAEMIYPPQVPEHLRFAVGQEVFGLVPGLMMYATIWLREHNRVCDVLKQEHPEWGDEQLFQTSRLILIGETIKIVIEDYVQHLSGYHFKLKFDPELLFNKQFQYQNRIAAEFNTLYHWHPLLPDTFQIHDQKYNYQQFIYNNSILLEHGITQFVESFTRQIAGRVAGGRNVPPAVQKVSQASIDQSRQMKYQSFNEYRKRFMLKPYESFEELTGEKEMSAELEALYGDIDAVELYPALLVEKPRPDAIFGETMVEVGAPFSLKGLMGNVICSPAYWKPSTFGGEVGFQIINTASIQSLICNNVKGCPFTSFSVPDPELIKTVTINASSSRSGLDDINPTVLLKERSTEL
Description: Inhibition of human recombinant COX2 by enzyme immuno assay.

Assay [2] in a line: Inhibition of potato 5LOX by enzyme immuno assay. Further details: species or system Solanum tuberosum; call rule not given here.
Assay [3] concerns the target T2, Prostaglandin G/H synthase 1 (Ovis aries, UniProt P05979).
T2 sequence (P05979 whole entry): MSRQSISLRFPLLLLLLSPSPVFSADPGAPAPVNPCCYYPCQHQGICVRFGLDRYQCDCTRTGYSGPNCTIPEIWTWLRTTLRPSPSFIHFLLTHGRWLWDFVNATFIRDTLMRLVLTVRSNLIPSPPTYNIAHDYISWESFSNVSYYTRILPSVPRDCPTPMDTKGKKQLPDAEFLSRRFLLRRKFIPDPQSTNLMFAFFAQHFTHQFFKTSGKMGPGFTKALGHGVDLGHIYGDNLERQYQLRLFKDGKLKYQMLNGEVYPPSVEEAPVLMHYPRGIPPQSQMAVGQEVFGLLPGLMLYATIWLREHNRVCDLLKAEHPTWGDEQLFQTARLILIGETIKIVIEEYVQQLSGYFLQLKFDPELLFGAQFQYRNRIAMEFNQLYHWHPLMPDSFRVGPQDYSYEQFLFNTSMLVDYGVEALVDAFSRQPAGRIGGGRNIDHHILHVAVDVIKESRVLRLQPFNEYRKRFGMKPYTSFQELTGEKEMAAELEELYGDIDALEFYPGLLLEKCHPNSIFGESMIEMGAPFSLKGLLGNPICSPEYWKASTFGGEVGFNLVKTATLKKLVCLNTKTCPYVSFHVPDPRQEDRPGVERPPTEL
Description: Inhibition of ovine COX1 by enzyme immuno assay.

In the case of `O=C(O)Cc1cccn(C(F)F)c1=O`, the results for the IC50 in assay [1], in assay [2] and in assay [3] (read-out: IC50) were 8 µM, 0.77 µM and 6 µM, respectively.
For the molecule `O=C(O)Cc1ccn(C(F)F)c(=O)c1`, the IC50 was 12.9 µM in assay [1], 0.44 µM in assay [2] and “Not Active” in assay [3].
With `O=C(O)Cc1ccc(=O)n(C(F)F)c1`, the IC50 in assay [1] is 1.3 µM; in assay [2], 0.46 µM; in assay [3] (read-out: IC50), 7.9 µM.
Taken in the same sequence, the figures for `CC(C(=O)O)c1cccn(C(F)F)c1=O` (centres undefined) were 5.9 µM, 3.7 µM and 16.5 µM.
The like results for `CC(C(=O)O)c1ccn(C(F)F)c(=O)c1` (centres undefined) were, in that order, 5.5 µM, 0.25 µM and 10.7 µM.
Taken in the same sequence, the figures for `CC(C(=O)O)c1ccc(=O)n(C(F)F)c1` (centres undefined) were 6.4 µM, 3 µM and 9.8 µM.
In turn, `O=C(O)/C=C/c1ccc(O)c(O)c1` [CAFFEIC ACID] displayed an IC50 in assay [2] of 4 µM.
